Test results taken from ChEMBL document CHEMBL1152274, “Discovery of potent and selective agonists for the free fatty acid receptor 1 (FFA(1)/GPR40), a potential target for the treatment of type II diabetes” (J Med Chem, 2008).
The source made the active and inactive calls. The rule behind the calls is not given here.

Tests used:
[1] = molecular target: T1, Free fatty acid receptor 1 (Homo sapiens, UniProt O14842); assay: Agonist activity at human FFA1 expressed in human 1321N1 cells by calcium fluorescence assay relative to 3-(4-(benzyloxy)phenyl)propionic acid; assay type: functional, cell-based
T1 sequence (O14842 whole entry): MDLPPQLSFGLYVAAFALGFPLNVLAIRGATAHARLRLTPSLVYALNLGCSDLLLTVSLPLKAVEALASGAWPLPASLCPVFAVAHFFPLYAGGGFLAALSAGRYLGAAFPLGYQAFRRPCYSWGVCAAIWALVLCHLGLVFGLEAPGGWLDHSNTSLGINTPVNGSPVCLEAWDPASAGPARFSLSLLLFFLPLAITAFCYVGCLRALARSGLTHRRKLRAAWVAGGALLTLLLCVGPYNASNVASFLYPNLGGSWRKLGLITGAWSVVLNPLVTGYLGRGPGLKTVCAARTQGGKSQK

[2] = molecular target: T2, Free fatty acid receptor 2 (Homo sapiens) (UniProt O15552); assay: Agonist activity at FFA2; assay type: functional
T2 sequence (whole entry): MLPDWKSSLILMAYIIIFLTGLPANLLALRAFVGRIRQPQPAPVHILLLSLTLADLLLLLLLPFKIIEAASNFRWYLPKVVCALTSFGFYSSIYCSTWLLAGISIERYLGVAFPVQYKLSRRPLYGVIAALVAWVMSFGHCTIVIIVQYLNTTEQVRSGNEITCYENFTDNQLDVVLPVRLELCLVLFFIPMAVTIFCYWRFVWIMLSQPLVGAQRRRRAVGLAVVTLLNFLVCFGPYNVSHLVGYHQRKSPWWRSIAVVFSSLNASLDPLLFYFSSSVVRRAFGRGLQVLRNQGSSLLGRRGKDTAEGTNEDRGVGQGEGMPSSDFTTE

[3] = molecular target: T3, Free fatty acid receptor 3 (Homo sapiens) (UniProt O14843); assay: Agonist activity at FFA3; assay type: functional
T3 sequence (whole entry): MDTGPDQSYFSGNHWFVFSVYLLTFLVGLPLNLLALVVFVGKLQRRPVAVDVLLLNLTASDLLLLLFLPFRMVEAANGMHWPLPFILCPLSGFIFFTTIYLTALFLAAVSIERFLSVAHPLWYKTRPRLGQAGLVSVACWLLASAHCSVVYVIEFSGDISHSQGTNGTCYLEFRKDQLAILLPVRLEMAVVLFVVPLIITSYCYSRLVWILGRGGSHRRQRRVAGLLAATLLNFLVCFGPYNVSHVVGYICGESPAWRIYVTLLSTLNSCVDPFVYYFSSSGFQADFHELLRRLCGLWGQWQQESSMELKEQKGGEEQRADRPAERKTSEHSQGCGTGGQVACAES

[4] = molecular target: T1, Free fatty acid receptor 1; assay: Agonist activity at human FFA1 expressed in human 1321N1 cells up to 31.6 uM by calcium fluorescence assay; assay type: functional, cell-based
[5] = molecular target: T1, Free fatty acid receptor 1; assay: Agonist activity at human FFA1 expressed in human 1321N1 cells by calcium fluorescence assay; assay type: functional, cell-based
INS-1E [6] = assay: Enhancement of glucose-stimulated insulin secretion in rat INS-1E cells at 3 uM; assay type: functional, cell-based
INS-1E [7] = assay: Enhancement of insulin secretion in rat INS-1E cells in presence of 12 mM glucose; assay type: functional, cell-based
INS-1E [8] = assay: Enhancement of palmitate-stimulated insulin secretion in rat INS-1E cells at 10 uM; assay type: functional, cell-based
INS-1E [9] = assay: Reduction of basal insulin secretion in rat INS-1E cells in presence of 2.8 mM glucose; assay type: functional, cell-based
Pancreatic islet [10] = assay: Induction of glucose-stimulated insulin secretion in pancreatic islets cells isolated from wild type mouse; assay type: functional, cell-based
Pancreatic islet [11] = assay: Induction of glucose-stimulated insulin secretion in pancreatic islets cells isolated from FFA1-deficient mouse; assay type: functional, cell-based

SMILES | Activity [1] | Activity [2] | Activity [3] | EC50 ([5]; read-out: pEC50 (converted)) | further results
O=C(O)CCc1ccc(C#Cc2cccc(C(F)(F)F)c2)cc1 | 98% | inactive | inactive | – | –
O=C(O)COc1ccc(C#Cc2ccc(CO)cc2)cc1 | – | inactive | inactive | – | Activity [4]: inactive
Cc1ccccc1C#Cc1ccc(OCC(=O)O)cc1 | 96% | inactive | inactive | 3720 nM | –
Cc1cccc(C#Cc2ccc(OCC(=O)O)cc2)c1 | 113% | inactive | inactive | 513 nM | –
O=C(O)CCc1ccc(C#Cc2cccc3ccccc23)cc1 | 100% | inactive | inactive | 85.1 nM | –
O=C(O)COc1ccc(C#Cc2cccc(O)c2)cc1 | 86% | inactive | inactive | 5620 nM | –
O=C(O)COc1ccc(C#Cc2ccccc2)cc1 | 104% | inactive | inactive | 1260 nM | –
Cc1cc(C)cc(C#Cc2ccc(CCC(=O)O)cc2)c1 | 101% | inactive | inactive | – | –
O=C(O)COc1ccc(C#Cc2ccc(O)cc2)cc1 | – | inactive | inactive | – | Activity [4]: inactive
Cc1cccc(C#Cc2ccc(CCC(=O)O)cc2)c1C | 108% | inactive | inactive | – | –
O=C(O)CCc1ccc(C#Cc2ccccc2)cc1 | 106% | inactive | inactive | – | EC50 ([5]; read-out: EC50): 96 nM
Cc1ccccc1C#Cc1ccc(CCC(=O)O)cc1 | 105% | inactive | inactive | – | EC50 ([5]; read-out: EC50): 32 nM; Activity (INS-1E [6]): Active; Activity (INS-1E [7]): Active; Activity (INS-1E [8]): Active; Activity (INS-1E [9]): Active; Activity (Pancreatic islet [10]): inactive; Activity (Pancreatic islet [11]): inactive
Cc1ccc(C#Cc2ccc(OCC(=O)O)cc2)cc1 | – | inactive | inactive | – | Activity [4]: inactive
Cc1ccc(C#Cc2ccc(CCC(=O)O)cc2)cc1 | 99% | inactive | inactive | 107 nM | –

The next lines start with results.

Activity [1] | Activity [2] | Activity [3] | EC50 ([5]; read-out: pEC50 (converted)) | SMILES | further results
92% | inactive | inactive | – | N#Cc1cccc(C#Cc2ccc(CCC(=O)O)cc2)c1 | –
100% | inactive | inactive | – | C#Cc1cccc(C#Cc2ccc(CCC(=O)O)cc2)c1 | –
96% | inactive | inactive | – | Nc1cccc(C#Cc2ccc(CCC(=O)O)cc2)c1 | –
94% | inactive | inactive | – | O=Cc1cccc(C#Cc2ccc(CCC(=O)O)cc2)c1 | –
94% | inactive | inactive | 58.9 nM | O=C(O)CCc1ccc(C#Cc2cccc([N+](=O)[O-])c2)cc1 | –
109% | inactive | inactive | – | Cc1cccc(C#Cc2ccc(CCC(=O)O)cc2)c1 | –
103% | inactive | inactive | – | O=C(O)CCc1ccc(C#Cc2cccc(CO)c2)cc1 | –
